From ChEMBL document CHEMBL1122369, “Autoxidation of the antitumor drug 9-hydroxyellipticine and its derivatives” (1983)

Tested on: L1210
Experiment: Growth inhibitory activity against L1210 lymphocytic leukemia cells.
Format: functional
Details: Mus musculus, read-out: ID50 (the source's name)

Cc1c2ccncc2c(C)c2c1[nH]c1ccc(O)cc12
IC50: 0.015 µM

Cc1c2ccncc2c(C)c2c1[nH]c1c(O)cccc12
IC50: 5.44 µM

Cc1c2c[n+](C)ccc2c(C)c2c1c1cc(O)ccc1n2C
IC50: 0.041 µM

Cc1c2ccncc2c(C)c2c1[nH]c1ccccc12 [ELLIPTECINE]
IC50: 0.99 µM

Cc1c2cc[n+](C)cc2c(C)c2c1[nH]c1ccc(O)cc12 [ELLIPTINIUM]
IC50: 0.05 µM
